From the supplement of paper PMC10883282
± gives the standard deviation of the averaged measurements.

System: MES-SA
Experiment: relative viability vs DMSO control (72 h) (fraction); higher = more viable cells
Summary of the method: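 Sarcoma cell lines were seeded in 384-well plates at densities chosen for 80–90% confluence, then 24 h later given 2.5 µl of serially diluted compound drawn from source plates spanning 10 mM to 0.0002 mM. They were held 72 h at 37 °C, 5% CO2, with 0.1% DMSO vehicle and a 5 µM positive control included. Relative viability was read with ATPLite as percent growth and averaged over up to triplicate wells. Rescaling placed full at 1 and none at 0.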

Compound | relative viability (0.00017 µM) | relative viability (0.00051 µM) | relative viability (0.00152 µM) | relative viability (0.00457 µM) | relative viability (0.01372 µM) | relative viability (0.04115 µM) | relative viability (0.1235 µM) | relative viability (0.3704 µM) | relative viability (1.111 µM) | relative viability (3.333 µM) | relative viability (10 µM)
CCCS(=O)(=O)Nc1ccc(F)c(C(=O)c2c[nH]c3ncc(-c4ccc(Cl)cc4)cc23)c1F [Vemurafenib] | 0.941 ± 0.024 | 0.951 ± 0.025 | 0.957 ± 0.013 | 0.957 ± 0.026 | 0.955 ± 0.031 | 0.953 ± 0.018 | 0.967 ± 0.028 | 0.995 ± 0.022 | 0.9726 ± 0.0075 | 0.782 ± 0.02 | 0.51 ± 0.01
C=CC(=O)N1CCC([C@@H]2CCNc3c(C(N)=O)c(-c4ccc(Oc5ccccc5)cc4)nn32)CC1 [Zanubrutinib] | 0.9598 ± 0.0038 | 0.965 ± 0.013 | 0.959 ± 0.026 | 0.983 ± 0.033 | 0.918 ± 0.031 | 0.95 ± 0.037 | 0.92 ± 0.041 | 0.965 ± 0.034 | 0.955 ± 0.018 | 0.881 ± 0.041 | 0.742 ± 0.034
CC(=O)Nc1cccc(-n2c(=O)n(C3CC3)c(=O)c3c(Nc4ccc(I)cc4F)n(C)c(=O)c(C)c32)c1 [Trametinib] | 0.968 ± 0.022 | 0.965 ± 0.012 | 0.929 ± 0.017 | 0.873 ± 0.029 | 0.831 ± 0.015 | 0.78 ± 0.011 | 0.76 ± 0.015 | 0.736 ± 0.034 | 0.683 ± 0.032 | 0.701 ± 0.017 | 0.6906 ± 0.006
C=CC(=O)N1CCC[C@@H](n2nc(-c3ccc(Oc4ccccc4)cc3)c3c(N)ncnc32)C1 [Ibrutinib] | 1 ± 0.018 | 0.977 ± 0.021 | 0.955 ± 0.041 | 0.947 ± 0.029 | 0.966 ± 0.026 | 0.964 ± 0.026 | 0.931 ± 0.03 | 0.864 ± 0.011 | 0.866 ± 0.045 | 0.88 ± 0.022 | 0.6991 ± 0.0047
Cc1ccc(F)c(NC(=O)Nc2ccc(-c3cccc4[nH]nc(N)c34)cc2)c1 [Linifanib] | 0.979 ± 0.013 | 0.968 ± 0.02 | 0.942 ± 0.014 | 0.956 ± 0.035 | 0.974 ± 0.01 | 0.971 ± 0.015 | 0.969 ± 0.011 | 0.918 ± 0.033 | 0.935 ± 0.01 | 0.75 ± 0.21 | 0.933 ± 0.014
CC[C@H](Nc1ncnc2[nH]cnc12)c1nc2cccc(F)c2c(=O)n1-c1ccccc1 [Idelalisib] | 1.01 ± 0.021 | 1 ± 0.034 | 0.993 ± 0.03 | 0.964 ± 0.015 | 0.971 ± 0.038 | 0.972 ± 0.036 | 0.986 ± 0.022 | 0.937 ± 0.016 | 0.889 ± 0.031 | 0.867 ± 0.029 | 0.711 ± 0.023
CC(C)(C)c1cc(NC(=O)Nc2ccc(-c3cn4c(n3)sc3cc(OCCN5CCOCC5)ccc34)cc2)no1 [Quizartinib] | 0.944 ± 0.012 | 0.974 ± 0.019 | 0.94 ± 0.015 | 0.935 ± 0.046 | 0.937 ± 0.023 | 0.931 ± 0.016 | 0.953 ± 0.025 | 0.933 ± 0.031 | 0.823 ± 0.017 | 0.602 ± 0.041 | 0.577 ± 0.025
CNC(=O)c1cc(Oc2ccc(NC(=O)Nc3ccc(Cl)c(C(F)(F)F)c3)c(F)c2)ccn1 [Regorafenib] | 0.973 ± 0.026 | 0.9876 ± 0.0026 | 0.972 ± 0.037 | 0.955 ± 0.036 | 0.968 ± 0.022 | 0.96 ± 0.03 | 0.997 ± 0.067 | 0.965 ± 0.045 | 0.923 ± 0.064 | 0.735 ± 0.038 | 0.246 ± 0.01
CNC(=O)c1ccc(-c2cnc3ncc(Cc4ccc5ncccc5c4)n3n2)cc1F [Capmatinib] | 0.93 ± 0.025 | 0.959 ± 0.037 | 0.958 ± 0.028 | 0.953 ± 0.057 | 0.943 ± 0.012 | 0.945 ± 0.036 | 0.982 ± 0.012 | 0.934 ± 0.012 | 0.937 ± 0.055 | 0.867 ± 0.035 | 0.837 ± 0.025
